Reference: patent US9408871B2, “Methods for inhibiting complement activation and uses thereof” (THE UNIVERSITY OF BRITISH COLUMBIA, priority 2013, dated 2016)

Test system: terminal pathway (TP) of complement
Assay: serum-based terminal pathway (TP) hemolytic assay (2% NHS, C5b,6, chicken erythrocytes)
Type: cell-based, human
Description: Erythrocyte lysis assays were used to measure complement-mediated hemolytic activity. Erythrocyte (RBC) lysis assays as previously described^18,37 were used to measure complement activity. For alternative pathway assays and for total hemolytic activity assays, unsensitized rabbit erythrocytes were used. Chicken erythrocytes were used for the terminal pathway assays.
Erythrocytes were washed three times in GVB with the reaction buffers as indicated, and counted using the Advia 120 Hematology System from Siemens (Siemens, Erlangen, Germany). Reactions in 300 μL were allowed to proceed for 30 min at 37° C., after which unlysed cells were pelleted by centrifugation at 600×g. Erythrocyte lysis, reflected by the released hemoglobin in the supernatant, was quantified by measuring the absorbance at 405 nm using the Mithras LB 940 microplate reader from Berthold Technologies (Bad Wildbad, Germany). Percent lysis was determined relative to the control of 100% lysis with H2O. For total hemolytic and terminal pathway (TP) assays, the concentrations of NHS and C5b,6 to initiate complement activation were established from pilot studies to obtain ˜70-80% erythrocyte lysis at 30 min.
For serum-based terminal pathway (TP) hemolytic assays, components were diluted in GVB containing 10 mM EDTA (GVB-E), the latter added to prevent upstream complement activation and generation of endogenous C5b,6. 2% NHS was used as the source of C7, C8, and C9, and hemolysis of chicken erythrocytes (cRBC) (3.3×10^8 cells/mL) was initiated by addition of exogenous purified C5b,6, the concentration of which was determined from pilot studies to yield ˜70-80% lysis at 30 min. No C5b,6 activity was detected in the NHS prior to initiating the reaction. For some experiments, instead of NHS, purified terminal pathway complement components were used in the TP assays. In these assays, in a final volume of 300 uL GVB, lysis was achieved by the sequential addition of the following components: cRBC (3.3×10^8 cells/mL), C5b,6 (20 μM), C7 (15 nM), C8 (10 nM), and C9 (25 nM). The unlysed cell pellet was removed by centrifugation and lysis was measured immediately after the 30-minute reaction. A standard curve for the terminal pathway assay using serum as the source of complement (FIG. 2) was generated using a fixed serum concentration at 2%, and increasing concentrations of purified C5b,6 dose-dependently lysed chicken erythrocytes after 30 min at 37° C. […] of purified C5b,6 was therefore used to fix baseline lysis at ˜80% to allow assessment of the inhibitory effects of polyphosphate in serum.
TP activity in NHS(2%), measured by lysis of cRBC, was initiated by adding a limiting amount of exogenous purified C5b,6 (250 pM) to achieve 70-80% lysis after 30 min. A molar excess of EDTA was used to prevent upstream activation of complement and generation of endogenous C5b,6. In the absence of C5b,6, there was no detectable complement-mediated cRBC lysis. P1 at concentrations ranging from 0.1 to 1000 μM, had no effect on complement-mediated hemolysis in NHS via the TP (FIG. 5A). By contrast, polyphosphate>1000 inhibited the TP in serum in a concentration-dependent manner, with an IC50 of ˜10 μM polyphosphate>1000 (dotted lines) (calculated based on monomeric phosphate).

With `O=P(O)(O)O` [P1, Orthophosphate] the “effect on TP hemolytic activity at equivalent concentration” value (100 μM (based on the monomeric form)) was “had no effect”, the “effect on complement-mediated hemolysis in NHS via the TP” value (0.1 to 1000 μM, 2% NHS, 250 pM C5b,6, cRBC) was “had no effect” and the “effect of co-incubated P1 on suppressive properties of polyphosphate>1000” value (up to 2 mM P1 with 200 μM polyphosphate>1000) was “had no effect on the suppressive properties”.
